Measured values taken from patent US20240270733A1, “HYDRATE FORM OF LAZERTINIB MESYLATE, PREPARATION METHOD THEREOF AND USE THEREOF” (HANGZHOU SOLIPHARMA CO., LTD., priority 2021, published 2024).
Entries after “also recorded” stand apart in the source; their conditions may differ. Structures can show the parent of a compound that is named as a salt. Where two headings read alike, the source gives them in different places. Blank lines part the entries; values can stand above or below the molecule they belong to.

Experiments:
[1] = Accelerated closed-vial stability study; type: physicochemical; settings: 40° C., 75% RH
[2] = Variable-temperature XRPD; type: physicochemical; settings: heated up to 100° C.
Procedure: In this application, X-ray powder diffraction (XRPD) data were collected using a BrukerD8 Advance diffractometer; parameters are as follows: Cu radiation; wavelength: 1.54 Å; Current voltage: 40 KV, 40 mA; Scan range: 3˜40° 2θ.

[3] = 40° C., 75% RH; for Assay (%) / Color / XRPD: open vial
Procedure: The samples were placed under accelerated open-vial conditions (40° C., 75% RH, and open vial) to assess the stability of both samples.

[4] = pH 1.2
physchem [5] = settings: thermodynamic from solid
physchem [6] = settings: thermodynamic from solid, Instantaneous Solubility
[7] = cited from earlier work
[8] = sealed 5 mL vial in self-sealing bag
[9] = pH 1.2, simulated gastric fluid

remains stable for at least (time) ([1]; 5 mL vial packed in a self-sealing bag (sealed)): at least 1 month | crystal form on heating (variable-temperature XRPD) [2]: remains unchanged | remains stable for at least (time) ([3]; open): at least 21 days | Assay (%) ([3]; 0 day): 98.79% | Color ([3]; 0 day): white | XRPD ([3]; 0 day): Form A | Assay (%) ([3]; 21 days): 98.44% | Color ([3]; 21 days): white | XRPD ([3]; 21 days): Form A | Instantaneous Solubility [4]: >50 mg/mL | solubility at 4 hrs (physchem [5]; [9]): > 60 mg/mL | solubility at 12 hrs (physchem [5]; [9]): > 60 mg/mL | solubility thermodynamic (physchem [5]; [9]): > 60 mg/mL | solubility at 4 hrs (physchem [5]; pH 4, aqueous buffer): 67.9 mg/mL | solubility at 12 hrs (physchem [5]; pH 4, aqueous buffer): 67 mg/mL | solubility thermodynamic (physchem [5]; pH 4, aqueous buffer): > 60 mg/mL | solubility at 4 hrs (physchem [5]; water): 70.7 mg/mL | solubility at 12 hrs (physchem [5]; water): 69.4 mg/mL | solubility thermodynamic (physchem [5]; water): > 60 mg/mL | solubility (physchem [6]; [9]): > 80 mg/mL | solubility (physchem [6]; pH 4, aqueous buffer): > 50 mg/mL | solubility (physchem [6]; water): > 50 mg/mL
Compound: C=CC(=O)Nc1cc(Nc2nccc(-n3cc(CN(C)C)c(-c4ccccc4)n3)n2)c(OC)cc1N1CCOCC1 [Form A, lazertinib mesylate]
change in assay value [1, 8]: minimal change; also recorded: no significant changes | color before and after storage [1, 8]: white; also recorded: no significant changes | crystal form before and after storage [1, 8]: remains unchanged; also recorded: no significant changes

Assay (%) ([3]; 0 day): 98.73% | Color ([3]; 0 day): yellow | XRPD ([3]; 0 day): Form I | Assay (%) ([3]; 21 days): 70.35% | Color ([3]; 21 days): pink | XRPD ([3]; 21 days): Form I | change in assay value (in words) ([3]; open, 21 days): significant decrease | change in color (in words) ([3]; open, 21 days): from yellow to pink
Compound: C=CC(=O)Nc1cc(Nc2nccc(-n3cc(CN(C)C)c(-c4ccccc4)n3)n2)c(OC)cc1N1CCOCC1 [Form I, lazertinib mono-mesylate, reference compound]
solubility ([7]; pH 1.2): 14.9 mg/mL | solubility ([7]; pH 4): 20.9 mg/mL
